# How the values were obtained:
# Format in all cases: cell-based
# human GPR40 [1] = target: T1, human GPR40 (Homo sapiens (Human), UniProt O14842); assay: FLIPR assay, agonist-induced calcium mobilization in GPR40/CHO NFAT BLA cells
# Description: (§1) Human and mouse GPR40 stable cell-lines were generated in CHO cells stably expressing NFAT BLA (Beta-lactamase). A human GPR40 stable cell-line was generated in HEK cells stably expressing the aequorin expressing reporter. The expression plasmids were transfected using lipofectamine (Life Technologies) following manufacturer's instructions. Stable cell-lines were generated following drug selection.
# FLIPR (Fluorimetric Imaging Plate Reader, Molecular Devices) assays were performed to measure agonist-induced calcium mobilization of the stable clones. For the FLIPR assay, one day before assay, GPR40/CHO NFAT BLA cells were seeded into black-wall-clear-bottom 384-well plates (Costar) at 1.4×10e4 cells/20 μL medium/well. The cells were incubated with 20 μl/well of the assay buffer (HBSS, 0.1% BSA, 20 mM HEPES, 2.5 mM probenecid, pH 7.4) containing 8 μM fluo-4, AM, 0.08% pluronic acid at room temperature for 100 minutes. Fluorescence output was measured using FLIPR. Compounds were dissolved in DMSO and diluted to desired concentrations with assay buffer. 13.3 μL/well of compound solution was added.
# human GPR40 [2] = target: T1, human GPR40; assay: Inositol Phosphate Turnover (IP1) Assay 2 in HEK cells stably expressing human GPR40; details: compound acoustically transferred
# Description: as §1
# (§2) The assay is performed in 384-well format. HEK cells stably expressing human GPR40 are plated at 15,000 cells per well in growth medium (DMEM/10% fetal calf serum). Cell plates are then incubated 16 hours at 37 degrees in a 5% CO2 incubator.
# Measurement of Inositol Phosphate Turnover (IP1) is performed using the CisBio IP-One kit (Part number 62IPAPEB). After the 16 hour incubation, the cells are washed with HEPES buffer and 10 ul of stimulation buffer (prepared as described in the kit) is added to each well. In a separate plate, compounds are diluted in DMSO (400-fold over the final concentration in the assay well) and 25 nl is acoustically transferred to the appropriate well in the assay cell plate. The plates are then incubated for 60 minutes at 37 degrees. […] The plates are then read in a Perkin Elmer EnVision or equivalent reader able to measure FRET. […]
# human GPR40 [3] = target: T1, human GPR40; assay: Inositol Phosphate Turnover (IP1) Assay 1 in HEK cells stably expressing human GPR40; details: compound transferred via pocket tip
# Description: as §1, §2
# Measurement of Inositol Phosphate Turnover (IP1) is performed using the CisBio IP-One kit (Part number 62IPAPEB). After the 16 hour incubation, the cells are washed with HEPES buffer and 10 ul of stimulation buffer (prepared as described in the kit) is added to each well. In a separate plate, compounds are diluted in DMSO (400-fold over the final concentration in the assay well) and 25 nl is transferred via pocket tip to the appropriate well in the assay cell plate. The plates are then incubated for 60 minutes at 37 degrees. 10 ul of detection buffer (also prepared as described in the IP-One kit) is added to each well and the plates are incubated for 60 minutes in the dark. The plates are then read in a Perkin Elmer EnVision or equivalent reader able to measure FRET. Fluorescent ratio of emission at 665 and 620 nm is then converted to IP1 concentration by back calculating from an IP1 standard curve prepared at the time of the assay.
# T1 sequence (O14842 whole entry): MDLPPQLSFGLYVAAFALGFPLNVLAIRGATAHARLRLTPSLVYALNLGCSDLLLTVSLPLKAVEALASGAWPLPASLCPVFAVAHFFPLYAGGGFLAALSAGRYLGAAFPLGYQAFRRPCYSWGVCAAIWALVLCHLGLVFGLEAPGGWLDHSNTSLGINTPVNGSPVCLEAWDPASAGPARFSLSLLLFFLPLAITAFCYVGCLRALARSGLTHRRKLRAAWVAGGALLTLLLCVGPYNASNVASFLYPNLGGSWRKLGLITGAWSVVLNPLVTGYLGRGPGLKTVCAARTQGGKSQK
EC50 (human GPR40 [1]),EC50 (human GPR40 [2]),EC50 (human GPR40 [3]),Structure (SMILES)
–,35 nM,–,"COc1cc(-c2ccc(CC3Cc4ccc([C@H](C5CC5)[C@H](C)C(=O)O)cc4O3)c(F)c2)ccn1 (single isomer, unassigned) [Example 5]"
–,37 nM,–,"COc1cc(-c2ccc(CC3Cc4ccc([C@H](C5CC5)[C@H](C)C(=O)O)cc4O3)c(F)c2)ccn1 (single isomer, unassigned) [Example 6]"
–,–,66 nM,"COc1ccc(F)c(-c2ccc(-c3cc4ccc([C@H](C5CC5)[C@H](C)C(=O)O)cc4o3)cc2)c1 [Example 1, (2S,3R)-3-cyclopropyl-3-(2-(2′-fluoro-5′-methoxy-[1,1′-biphenyl]-4-yl)benzofuran-6-yl)-2-methylpropanoic acid]"
–,–,105 nM,"COc1ccc(F)c(-c2ccc(C3Cc4ccc([C@H](C5CC5)[C@H](C)C(=O)O)cc4O3)cc2)c1 (stereo partly drawn) [Example 3, (2S,3R)-3-cyclopropyl-3-(2-(2′-fluoro-5′-methoxy-[1,1′-biphenyl]-4-yl)-2,3-dihydrobenzofuran-6-yl)-2-methylpropanoic acid]"
–,–,311 nM,COc1ccc(F)c(-c2ccc(C3Cc4ccc([C@@H](CC(=O)O)C5CC5)cc4O3)nc2)c1 (some centres unmarked) [Example 4]

# The next lines start with the molecule.
Structure (SMILES),EC50 (human GPR40 [1]),EC50 (human GPR40 [2]),EC50 (human GPR40 [3])
Cc1cccc(C)c1-c1cccc(C2Cc3cc(CCC(=O)O)ccc3O2)c1 (racemic) [Example 18],1220 nM,–,–
"COc1cc(C)c(-c2cccc(C3Cc4cc(CCC(=O)O)ccc4O3)c2)c(C)c1 (single isomer, unassigned) [Example 16]",624 nM,–,5870 nM
"COc1cc(C)c(-c2cccc(C3Cc4cc(CCC(=O)O)ccc4O3)c2)c(C)c1 (single isomer, unassigned) [Example 17]",4320 nM,–,3940 nM
COc1ccc(F)c(-c2ccc(-c3cc4ccc([C@@H](CC(=O)O)C5CC5)cc4o3)nc2)c1 [Example 2],–,–,215 nM
"Cc1cccc(C)c1-c1cccc(-c2cc3cc(CCC(=O)O)ccc3o2)c1 [Example 7, 3-(2-(2′,6′-dimethyl-[1,1′-biphenyl]-3-yl)benzofuran-5-yl)propanoic acid]",203 nM,–,3220 nM
O=C(O)CCc1ccc2oc(-c3ccc(C(F)(F)F)cc3)cc2c1 [Example 8],20900 nM,–,–
COc1cc(C)c(-c2cccc(-c3cc4cc(CCC(=O)O)ccc4o3)c2)cc1F [Example 9],815 nM,–,3690 nM
COc1cc(C)c(-c2cccc(-c3cc4cc(CCC(=O)O)ccc4o3)c2)c(C)c1 [Example 10],540 nM,–,–
COc1c(F)cc(-c2cccc(-c3cc4cc(CCC(=O)O)ccc4o3)c2)c(Cl)c1F [Example 11],1190 nM,–,4580 nM
Cc1cc(C)c(-c2cccc(-c3cc4cc(CCC(=O)O)ccc4o3)c2)c(F)c1 [Example 12],716 nM,–,> 10000 nM
Cc1cc(F)cc(C)c1-c1cccc(-c2cc3cc(CCC(=O)O)ccc3o2)c1 [Example 13],306 nM,–,6210 nM
O=C(O)CCc1ccc2oc(-c3cccc(-c4c(Cl)cccc4Cl)c3)cc2c1 [Example 14],726 nM,–,> 10000 nM
COc1cc(C)c(-c2cccc(C3Cc4cc(CCC(=O)O)ccc4O3)c2)c(C)c1 (centres unmarked) [Example 15],1490 nM,–,–
